Laboratory results reported in article PMC12040169 (PLOS Biology, 2025).

Assay: in vitro
Conditions: human, hela cells, % viability

Structure (SMILES)	viability at 28.5 h, 10 µM [%]
CCN1C(=O)C2(CC(=O)N(Cc3ccc(OC)c(OC)c3)C2=O)c2cc(C)ccc21 (stereo not drawn) [CBK075172]	85.4
CCN1C(=O)C2(CC(=O)N(CCCCC(C)C)C2=O)c2cc(C)ccc21 (stereo not drawn) [CBK075173]	103
COCCN1C(=O)C2(CC(=O)N(Cc3ccccc3)C2=O)c2cc(OC)ccc21 (stereo not drawn) [CBK075177]	92.5
COCCN1C(=O)C2(CC(=O)N(CCN3CCCC3=O)C2=O)c2cc(OC)ccc21 (stereo not drawn) [CBK075189]	92.4
CCN1C(=O)C2(CC(=O)N(CCc3cccc(OC)c3)C2=O)c2cc(C)ccc21 (stereo not drawn) [CBK075195]	96.7
COc1ccc2c(c1)C1(CC(=O)N(CCc3scnc3C)C1=O)C(=O)N2C (stereo not drawn) [CBK075213]	91.6
CCN1C(=O)C2(CC(=O)N(CCc3scnc3C)C2=O)c2cc(C)ccc21 (stereo not drawn) [CBK075217]	96.8
COc1ccc2c(c1)C1(CC(=O)N(Cc3ccccc3)C1=O)C(=O)N2Cc1ccccc1 (stereo not drawn) [CBK075228]	106
CCN1C(=O)C2(CC(=O)N(Cc3ccccc3)C2=O)c2cc(Cl)ccc21 (stereo not drawn) [CBK075233]	99.1
CCN1C(=O)C2(CC(=O)N(CC(=O)OC)C2=O)c2cc(Cl)ccc21 (stereo not drawn) [CBK075234]	93.7
COc1ccc2c(c1)C1(CC(=O)N(Cc3cccnc3)C1=O)C(=O)N2C (stereo not drawn) [CBK075236]	103
COc1ccc2c(c1)C1(CC(=O)N(CCc3scnc3C)C1=O)C(=O)N2Cc1ccccc1 (stereo not drawn) [CBK075240]	95.7
C=CCN1C(=O)CC2(C1=O)C(=O)N(C)c1ccc(Cl)cc12 (stereo not drawn) [CBK075242]	110
CN1C(=O)C2(CC(=O)N(CC3CCCCC3)C2=O)c2cc(F)ccc21 (stereo not drawn) [CBK075257]	106
CN1C(=O)C2(CC(=O)N(Cc3ccccc3)C2=O)c2cc(F)ccc21 (stereo not drawn) [CBK075268]	98.6
C=CCN1C(=O)C2(CC(=O)N(Cc3ccccc3)C2=O)c2cc(OC)ccc21 (stereo not drawn) [CBK075281]	103
C=CCN1C(=O)CC2(C1=O)C(=O)N(CC)c1ccc(F)cc12 (stereo not drawn) [CBK075316]	115
C=CCN1C(=O)C2(CC(=O)N(CC)C2=O)c2cc(F)ccc21 (stereo not drawn) [CBK075318]	100
COCCN1C(=O)C2(CC(=O)N(CCCN3C(=O)CCC3=O)C2=O)c2ccccc21 (stereo not drawn) [CBK075333]	117
COCCN1C(=O)C2(CC(=O)N(CC3CCCCC3)C2=O)c2ccccc21 (stereo not drawn) [CBK075355]	97.8
C=CCN1C(=O)CC2(C1=O)C(=O)N(Cc1ccc(S(=O)(=O)N(CC)CC)cc1)c1ccc(Cl)cc12 (stereo not drawn) [CBK075412]	98

Structure (SMILES)	viability at 28.5 h, 10 µM [%]
C=CCN1C(=O)CC2(C1=O)C(=O)N(CCCN1C(=O)c3ccccc3C1=O)c1ccc(Cl)cc12 (stereo not drawn) [CBK075443]	92.6
C=CCN1C(=O)CC2(C1=O)C(=O)N(Cc1csc(-c3ccccc3)n1)c1ccc(Cl)cc12 (stereo not drawn) [CBK075445]	99.6
COc1ccc(CN2C(=O)CC3(C2=O)C(=O)N(C)c2ccccc23)cc1OC (stereo not drawn) [CBK075450]	91.8
CN1C(=O)CC2(C1=O)C(=O)N(CCN1CCCC1=O)c1ccc(F)cc12 (stereo not drawn) [CBK075463]	90.4
COc1cc(OC)nc(CN2C(=O)C3(CC(=O)N(C)C3=O)c3cc(F)ccc32)n1 (stereo not drawn) [CBK075475]	110
COc1ccc2c(c1)C1(CC(=O)N(Cc3ccccc3)C1=O)C(=O)N2CCn1cnc2c1c(=O)n(C)c(=O)n2C (stereo not drawn) [CBK075478]	93.5
COCCN1C(=O)C2(CC(=O)N(CCNS(C)(=O)=O)C2=O)c2cc(C)ccc21 (stereo not drawn) [CBK075479]	98.2
CN1C(=O)CC2(C1=O)C(=O)N(Cc1ccc3ccccc3n1)c1ccc(Cl)cc12 (stereo not drawn) [CBK075494]	102
Cc1ccc2c(c1)C1(CC(=O)N(C)C1=O)C(=O)N2CCCOc1ccccc1 (stereo not drawn) [CBK075496]	98.2
COc1ccc2c(c1)C1(CC(=O)N(Cc3ccccc3)C1=O)C(=O)N2CCCN1C(=O)c2ccccc2C1=O (stereo not drawn) [CBK075501]	93.4
CCN1C(=O)CC2(C1=O)C(=O)N(Cc1nc(OC)cc(OC)n1)c1ccccc12 (stereo not drawn) [CBK075510]	75.8
CCN1C(=O)CC2(C1=O)C(=O)N(CCCN(C)S(C)(=O)=O)c1ccccc12 (stereo not drawn) [CBK075519]	101
CCN1C(=O)CC2(C1=O)C(=O)N(CCc1cccs1)c1ccccc12 (stereo not drawn) [CBK075521]	91.4
COc1ccc(OCCCN2C(=O)C3(CC(=O)N(Cc4ccccc4)C3=O)c3cc(OC)ccc32)cc1 (stereo not drawn) [CBK075523]	106
Cc1ccc2c(c1)C1(CC(=O)N(C)C1=O)C(=O)N2CCOc1cccc2c1OCCO2 (stereo not drawn) [CBK075529]	99.6
CCN1C(=O)CC2(C1=O)C(=O)N(CCc1cccs1)c1ccc(Cl)cc12 (stereo not drawn) [CBK075614]	106
O=C1CC2(C(=O)N1Cc1ccccc1)C(=O)N(Cc1csc(-c3ccccc3)n1)c1ccccc12 (stereo not drawn) [CBK075673]	112
C=CCN1C(=O)CC2(C1=O)C(=O)N(Cc1nc(-c3ccc(Cl)cc3)no1)c1ccc(OC)cc12 (stereo not drawn) [CBK075692]	97.1
Cc1ccc(-c2nnc(CN3C(=O)C4(CC(=O)N(Cc5ccccc5)C4=O)c4ccccc43)o2)cc1 (stereo not drawn) [CBK075749]	103
COCCN1C(=O)CC2(C1=O)C(=O)N(CC(=O)c1ccccc1)c1ccccc12 (stereo not drawn) [CBK075875]	99
COCCOCN1C(=O)CC2(C1=O)C(=O)N(Cc1ccc(OC(F)(F)F)cc1)c1ccccc12 (stereo not drawn) [CBK075942]	94.2

Structure (SMILES)	viability at 28.5 h, 10 µM [%]
CC(C)N1C(=O)C2(CC(=O)N(CCCN3C(=O)c4ccccc4C3=O)C2=O)c2cc(F)ccc21 (stereo not drawn) [CBK075969]	99
COc1cccc(CN2C(=O)CC3(C2=O)C(=O)N(CC(=O)c2ccccc2)c2ccccc23)c1 (stereo not drawn) [CBK075984]	88.9
COc1cc(OC)nc(CN2C(=O)CC3(C2=O)C(=O)N(CC(=O)c2ccccc2)c2ccc(C)cc23)n1 (stereo not drawn) [CBK076059]	96.7
O=C(O)CN1C(=O)CC2(C1=O)C(=O)N(Cc1ccccc1)c1ccccc12 (stereo not drawn) [CBK076093]	116
Cc1nc(CN2C(=O)CC3(C2=O)C(=O)N(CCCCOc2ccccc2)c2ccccc23)cs1 (stereo not drawn) [CBK076103]	102
Cc1ccc2c(c1)C1(CC(=O)N(CC(=O)O)C1=O)C(=O)N2C (stereo not drawn) [CBK076104]	96.8
CN1C(=O)CC2(C1=O)C(=O)N(CC(=O)O)c1ccc(Cl)cc12 (stereo not drawn) [CBK076107]	98.8
COc1ccc2c(c1)C1(CC(=O)N(C)C1=O)C(=O)N2CCCC(=O)O (stereo not drawn) [CBK076109]	77.3
COc1ccc2c(c1)C1(CC(=O)N(C)C1=O)C(=O)N2CC(=O)O (stereo not drawn) [CBK076118]	100
O=C(O)CN1C(=O)C2(CC(=O)N(Cc3ccccc3)C2=O)c2cc(F)ccc21 (stereo not drawn) [CBK076173]	99.3
CCN1CCCC1CNC(=O)c1ccc(-c2ccco2)nc1N1CCN(C(=O)c2ccco2)CC1 (stereo not drawn) [CBK076206]	90.4
COc1ccc(OCCNC(=O)c2cc(Br)cnc2N2CCOCC2)cc1 [CBK076214]	88
O=C(NCCc1c[nH]c2ccccc12)c1ccc(-c2ccco2)nc1N1CCN(C(=O)c2ccco2)CC1 [CBK076217]	95.4
O=C(NCc1nc2ccccc2[nH]1)c1cc(Br)cnc1NCCOc1ccccc1 [CBK076220]	104
CN1CCN(C(=O)c2cc(Br)cnc2NCCOc2ccccc2)CC1 [CBK076231]	92
O=C(NCc1cccnc1)c1cc(Br)cnc1NCCOc1ccccc1 [CBK076265]	99.2
O=C(NCc1nc2ccccc2[nH]1)c1cc(Br)cnc1N1CCOCC1 [CBK076278]	96.7
O=C(NCC1COc2ccccc2O1)c1cc(-c2ccc(Cl)cc2)cnc1N1CCOCC1 (stereo not drawn) [CBK076286]	94.9
CN(C)C(=O)c1cc(Br)cnc1NCc1ccc2c(c1)OCO2 [CBK076293]	110
COc1ccc(-c2cnc(NCC3CC3)c(C(=O)N(C)CCN(C)C)c2)cc1 [CBK076338]	90.5
C=C(C)CNC(=O)c1cc(-c2ccc(OC)cc2)cnc1NCC1CC1 [CBK076339]	97.7

Structure (SMILES)	viability at 28.5 h, 10 µM [%]
COc1ccc(OCCNC(=O)c2cc(-c3cccnc3)cnc2N2CCOCC2)cc1 [CBK076341]	96.2
CN1CCN(C(=O)c2cc(Br)cnc2NCc2cccnc2)CC1 [CBK076347]	87.3
Cc1ccc(C(=O)N(C)CCN(C)C)c(NCc2cccnc2)n1 [CBK076348]	91.5
O=C(NCc1ccco1)c1cc(-c2ccc(Cl)cc2)cnc1N1CCOCC1 [CBK076352]	87
Cc1cc(NC(=O)c2cc(Br)cnc2NCc2cccnc2)n(C)n1 [CBK076358]	90.7
CNC(=O)c1cccc(NC(=O)c2cc(Br)cnc2NCC2CC2)c1 [CBK076380]	95.5
COc1ccc(OCCNC(=O)c2ccc(C)nc2NCCCn2ccnc2)cc1 [CBK076385]	117
C=C(C)CNC(=O)c1ccc(C)nc1N1CCOCC1 [CBK076389]	93.5
Cc1ccc(C(=O)NCc2cccnc2)c(N2CCOCC2)n1 [CBK076400]	112
O=C(Nc1ccc(C(F)(F)F)cc1)c1cc(Br)cnc1NCc1cccnc1 [CBK076419]	111
O=C(NCCc1ccccc1)c1cc(Br)cnc1NCCCn1ccnc1 [CBK076421]	103
C=CCNC(=O)c1cc(Br)cnc1NCC1CC1 [CBK076424]	102
COc1ccc(S(=O)(=O)NCCNC(=O)c2cc(-c3cccc(S(C)(=O)=O)c3)cnc2NCC2CC2)cc1 [CBK076425]	94.6
CC(=O)NCCNC(=O)c1ccc(C)nc1N1CCOCC1 [CBK076453]	98.6
O=C(NC1CCS(=O)(=O)C1)c1cc(-c2cccnc2)cnc1NCc1ccc2c(c1)OCO2 (stereo not drawn) [CBK076455]	89.2
O=C(NNCc1ccccc1)c1cc(Br)cnc1N1CCN(C(=O)c2ccco2)CC1 [CBK076460]	101
COCCNC(=O)c1cc(-c2cccc(C(=O)N(C)C)c2)cnc1N1CCOCC1 [CBK076464]	97.7
COc1cccc(-c2ccc(C(=O)NCCNC(C)=O)c(N3CCOCC3)n2)c1 [CBK076465]	86.3
